Measurements reported in US20220047616A1, “Method and Compositions for Treating HTLV-1 Virus Infection” (priority 2019, published 2022).

Assays:
Dengue virus = conditions: Cheung et al. 2014; cited from earlier work
ADV-3 = conditions: reported; cited from earlier work
ENTV EV71 = conditions: reported; cited from earlier work
HEP B = conditions: reported; cited from earlier work
HCV H strain NS5B = HCV H strain NS5B (Hepatitis C virus genotype 1a, UniProt P27958); conditions: reported; cited from earlier work
HEP C = conditions: reported; cited from earlier work
HSV-2 = conditions: reported; cited from earlier work
HIV-1 [1] = conditions: reported; cited from earlier work
ADV-8 = conditions: reported; cited from earlier work
HSV-1 = conditions: reported; cited from earlier work
ENTV CVB1 = conditions: reported; cited from earlier work
ADV-11 = conditions: reported; cited from earlier work
Ebolavirus (EBOV/Kik) = type: cell-based; conditions: compositions added to cells, then virus, 1 hr; FIGS. 1-2
HTLV-1 [2] = assay: Infectivity of HTLV-1 particles from treated SLB1 cells on primary huPBMCs (p19Gag ELISA); type: cell-based; conditions: lowest concentration 10 μg/ml, relative to vehicle control
HTLV-1 [3] = assay: Virological synapse formation and HTLV-1 transmission in co-culture (fluorescence microscopy, gp21-positive huPBMCs); type: cell-based; conditions: SLB1/pLenti-GFP pre-treated 3 hrs, 10, 50, 100 μg/ml
HIV-1 [4] = conditions: cited from earlier work
rhinovirus = assay: Antiviral activity against rhinovirus infection; conditions: concentrations and assays employed herein
Marburgvirus (MARV/Ci67) = type: cell-based; conditions: compositions added to cells, then virus, 1 hr; FIGS. 3-4
HTLV-1 [5] = assay: HTLV-1 replication and release of p19Gag-containing particles from SLB1 cells (Anti-HTLV-1 p19Gag ELISA); type: cell-based; conditions: SLB1 cells, 10, 50, 100 μg/ml, 72 hrs
[6] = test system: DENV2 (08-10381 Montserrat strain); assay: Protection of DENV2-induced cytopathic effect (CPE) with Neutral Red readout; type: cell-based, Dengue virus; conditions: CPE-based assay, Vero cells, 7 days
Experimental: (§1) A CPE-based antiviral assay was performed by infecting target cells in the presence or absence of test compositions, at a range of concentrations. […] cytopathic effects and cell death. […] For CPE-based assays, cell viability was determined with a neutral red readout. Viable cells incorporate neutral red in their lysosomes. Uptake of neutral red relies on the ability of live cells to maintain a lower pH inside their lysosomes than in the cytoplasm, and this active process requires ATP. Once inside the lysosome, the neutral red dye becomes charged and is retained intracellularly. […] The amount of neutral red in solution was quantified by reading the absorbance (optical density) of each well at 490 nm […]
(§2) Cytotoxic effects were evaluated in uninfected cells by comparing viability in the presence of inhibitors to the viability of mock-treated cells. Cytotoxicity was determined by an XTT viability assay, which was conducted at the same timepoint as the readout for the corresponding infection assay.
(§3) Test compositions were dissolved in 100% methanol. […] When possible, the EC50 and CC50 of the composition was determined for each assay using GraphPad Prism software. […]
Protection of DENV2-induced cytopathic effect (CPE) with Neutral Red readout: For the DENV2 antiviral assay, the 08-10381 Montserrat strain was used. […]

HTLV-1 [7] = assay: HTLV-1 transmission in SLB1/huPBMC co-culture (p19Gag ELISA); type: cell-based; conditions: SLB1 pre-treated 15 min or 3 hrs, co-culture 72 hrs
[8] = test system: HTLV-1+ SLB1 lymphoma T-cell-line; assay: Cytotoxicity/apoptosis in HTLV-1+ SLB1 lymphoma T-cells (Annexin V-FITC/PI); conditions: 72 hrs
ZIKV (PLCal_ZV strain) = assay: Protection of ZIKV-induced cytopathic effect (CPE) with Neutral Red readout; type: cell-based, Zikavirus; conditions: CPE-based assay, Vero cells, 6 days
Experimental: as §1, §2, §3
Protection of ZIKV-induced cytopathic effect (CPE) with Neutral Red readout: For the ZIKV antiviral assay, the PLCal_ZV strain was used. […]

Chain of HCV H strain NS5B (P27958 2421-3011): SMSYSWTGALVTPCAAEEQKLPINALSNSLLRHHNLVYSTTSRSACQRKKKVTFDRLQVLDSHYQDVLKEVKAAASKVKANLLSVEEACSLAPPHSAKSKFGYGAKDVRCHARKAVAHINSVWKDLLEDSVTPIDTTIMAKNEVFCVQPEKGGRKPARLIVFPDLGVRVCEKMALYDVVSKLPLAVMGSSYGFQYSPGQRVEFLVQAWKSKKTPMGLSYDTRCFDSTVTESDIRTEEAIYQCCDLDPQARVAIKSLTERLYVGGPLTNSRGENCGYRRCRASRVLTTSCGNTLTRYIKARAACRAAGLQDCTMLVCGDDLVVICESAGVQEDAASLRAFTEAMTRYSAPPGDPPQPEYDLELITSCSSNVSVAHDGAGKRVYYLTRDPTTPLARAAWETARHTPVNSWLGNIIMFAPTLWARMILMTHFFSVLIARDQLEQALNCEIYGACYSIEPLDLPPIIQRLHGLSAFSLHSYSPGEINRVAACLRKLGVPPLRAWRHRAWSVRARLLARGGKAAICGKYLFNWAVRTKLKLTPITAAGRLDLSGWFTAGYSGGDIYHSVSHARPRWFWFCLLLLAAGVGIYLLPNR

In the case of `CC(=O)O[C@H]1C[C@H](O[C@H]2[C@@H](O)C[C@H](O[C@H]3[C@@H](O)C[C@H](O[C@H]4CC[C@@]5(C)[C@H](CC[C@@H]6[C@@H]5C[C@@H](O)[C@]5(C)[C@@H](C7=CC(=O)OC7)CC[C@]65O)C4)O[C@@H]3C)O[C@@H]2C)O[C@H](C)[C@H]1O[C@@H]1O[C@H](CO)[C@@H](O)[C@H](O)[C@H]1O` [lanatoside C], the “antiviral activity against Dengue virus” value (Dengue virus) is given as “demonstrates antiviral activity”.

For `C[C@H]1[C@H](C)CC[C@]2(C(=O)O)CC[C@]3(C)C(=CC[C@@H]4[C@@]5(C)CC[C@H](O)C(C)(C)[C@@H]5CC[C@]43C)[C@H]12` [Ursolic acid, ursolic acid], the “anti-viral activity against ADV-3” value (ADV-3) is listed as “some anti-viral activity”, the “anti-viral activity against ENTV EV71” value (ENTV EV71) is listed as “some anti-viral activity” and the “anti-viral activity against HEP B” value (HEP B) is listed as “some anti-viral activity”. For the same compound, the “anti-viral activity against HCV H strain NS5B” value (HCV H strain NS5B) was “some anti-viral activity”, the “anti-viral activity against HEP C” value (HEP C) was “some anti-viral activity” and the “anti-viral activity against HSV-2” value (HSV-2) was “some anti-viral activity”. The “anti-viral activity against HIV-1” value (HIV-1 [1]) was “some anti-viral activity”, the “anti-viral activity against ADV-8” value (ADV-8) was “some anti-viral activity” and the “anti-viral activity against HSV-1” value (HSV-1) was “some anti-viral activity”. For the same compound, the “anti-viral activity against ENTV CVB1” value (ENTV CVB1) was “some anti-viral activity” and the “anti-viral activity against ADV-11” value (ADV-11) was “some anti-viral activity”.

For `C[C@H]1O[C@@H](O[C@H]2[C@@H](O)C[C@H](O[C@H]3[C@@H](O)C[C@H](O[C@H]4CC[C@@]5(C)[C@H](CC[C@@H]6[C@@H]5C[C@@H](O)[C@]5(C)[C@@H](C7=CC(=O)OC7)CC[C@]65O)C4)O[C@@H]3C)O[C@@H]2C)C[C@H](O)[C@@H]1O` [digoxin, reference compound], the “cellular viability of Vero E6 cells” value (Vero E6 cells) was “did not reduce cellular viability”.

For `CC1(C)CC[C@]2(C(=O)O)CC[C@]3(C)C(=CC[C@@H]4[C@@]5(C)CC[C@H](O)C(C)(C)[C@@H]5CC[C@]43C)[C@@H]2C1` [Oleanolic acid, oleanolic acid], the “anti-viral activity against HCV H strain NS5B” value (HCV H strain NS5B) is listed as “some anti-viral activity”, the “anti-viral activity against HEP C” value (HEP C) is listed as “some anti-viral activity” and the “anti-viral activity against HIV-1” value (HIV-1 [1]) is listed as “some anti-viral activity”.

With `CO[C@H]1C[C@H](O[C@H]2CC[C@@]3(C)[C@H](CC[C@@H]4[C@@H]3CC[C@]3(C)[C@@H](C5=CC(=O)OC5)[C@@H](OC(C)=O)C[C@]43O)C2)O[C@@H](C)[C@@H]1O` [oleandrin] the “efficacy against Ebolavirus (dose response, based on oleandrin content)” value (Ebolavirus (EBOV/Kik)) was “efficacious”, the “infectivity of newly-synthesized p19Gag-containing virus particles on huPBMCs” value (HTLV-1 [2]) was “inhibited the infectivity” and the “formation of virological synapses and transmission of HTLV-1” value (HTLV-1 [3]) was “inhibited the formation of virological synapses and the transmission of HTLV-1 in vitro”. For the same compound, the “HIV-1 viral infectivity in vitro” value (HIV-1 [4]) was “inhibit viral infectivity in vitro”, the “incorporation of gp120 envelope glycoprotein of HIV-1 into mature virus particles” value (HIV-1 [4]) was “prevent the incorporation” and the “activity against rhinovirus (viral replication)” value (rhinovirus) was “inactive”. The “efficacy against Marburgvirus (dose response, based on oleandrin content)” value (Marburgvirus (MARV/Ci67)) was “efficacious”, the “HTLV-1 replication / release of p19Gag-containing virus particles” value (HTLV-1 [5]) was “does not significantly inhibit” and the “anti-viral activity against HIV-1” value (HIV-1 [1]) was “demonstrated anti-HIV activity”. For the same compound, the “efficacy against Dengue virus” value [6] was “demonstrates efficacy”, the “transmission of HTLV-1 in co-culture (extracellular p19Gag)” value (HTLV-1 [7]) was “inhibited the transmission of HTLV-1 as compared to the vehicle control” and the “cytotoxicity/apoptosis in SLB1 cells at the lowest concentration” value ([8]; 10 μg/ml) was “did not induce significant cytotoxicity/apoptosis”. The “cytotoxicity in SLB1 cells compared with Vehicle control” value [8] was “not significantly higher than the Vehicle control”, the “efficacy against Zikavirus” value (ZIKV (PLCal_ZV strain)) was “demonstrates efficacy” and the “cellular viability of Vero E6 cells” value (Vero E6 cells) was “did not reduce cellular viability”.
